Measured values: patent publication US20060292243A1, “Arsenic compounds for the treatment of the arsenic-sensitive blast-cell related diseases” (priority 2005, published 2006)
“Also recorded” adds a separate entry of the source.

How the values were obtained:
NZB/NZW mice [1] = assay: Survival of SLE model mice; type: in vivo
Description: (§1) In vivo studies on the activity of arsenic compound were carried out by using an experimental animal model of human Systemic Lupus Erythematosus. NZB/NZW denotes the mouse strain that spontaneously develops an autoimmune syndrome having notable similarities to human Systemic Lupus Erythematosus. Autoimmune disease in NZB/NZW mice is characterized by antinuclear antibodies (IgG) production about 4 months of age, and glomerulonephritis with proteinuria is developed when at 9 months of age, and that is the major cause of death (uremia).
(§2) At 24 weeks of age, mice (3 groups) were treated 3 times per week with PBS (Group I as positive control), 2.5 mg/kg of As2O3 (Group II), or 5 mg/kg of As2O3 (Group III) administered intraperitoneally. The treatment was stopped at 28 weeks of age. Mice were observed daily for clinical signs of disease and for mortality and were bled every 4 weeks for determination of anti-DNA antibody production.
Coincident with ameliorating the clinical signs of severe immune complex nephritis, a dramatic prolongation of survival was observed.

NZB/NZW mice [2] = assay: Severe glomerulonephritis (proteinuria by urine dipstick) in SLE model mice; type: in vivo; settings: for Mice with severe glomerulonephritis (%): proteinuria more than 1 g/L (2+)
Description: as §1, §2
Urine protein levels were determined by colorimetric analysis using dipsticks (Multistix®, Bayer). Severe glomerulonephritis was defined as proteinuria more than 1 g/L (2+) by urine dipstick.

OVA-specific IgE = OVA-specific IgE in serum of OVA-immunized mice; type: in vivo, BALB/c mice
Description: (§3) BALB/c mice (female, 6-8 weeks) were immunized with ovalbumin (OVA) at day 0, 14, 21 and 28. 38 days later, animals were injected with arsenic trioxide (ATO) i.p. for 7 days and antigen challenges with OVA were performed at day 42, 43, 44. At day 45, the airway enhanced pause (PenH) values were measured. 48 hours after the last antigen challenges, the mice were sacrificed, the trachea cannulated, and bronchoalveolar lavage (BAL) was performed by four repeated lavages with balanced salt solution (HBSS) injected into the lungs via the trachea. Total cell counts were performed with a hemocytometer after staining with trypan blue, and then cytospins were prepared, and a differential count of 300 cells per slide was performed. To obtain the absolute number of each leukocyte subtype in the lavage, the percentage of each cell type was multiplied by the total number of cells that were recovered from the bronchoalveolar lavage fluid (BALF). Eotaxin in the BALF was measured via ELISA. Four groups of mice were treated as Table 3.1.
Group A mice were challenged by PBS only and then treated by PBS, too. Group B mice were immunized by ovalbumin and then treated by PBS only. […]
After antigen challenges, mice serum were prepared and OVA-specific IgE values in serum were detected for evidence of immunization.

[3] = test system: cultured human fibroblasts; assay: Cell cycle effect on cultured human fibroblasts (MTT, flowcytometry, western blot, promoter luciferase); type: cell-based; settings: 1 to 10 μM, 24 hr
Description: Arsenic trioxide has been approved for APL (acute promyelocytic leukemia) therapy, and though much work remains to be done on the application of arsenic trioxide and the mechanism of arsenic toxicity is not fully understood, several recent works pointed out the involvement of oxidative stress in arsenic-induced DNA damage in living cells may cause cell cycle arrest.

BALB/c mice = assay: Airway responsiveness to methacholine (PenH, pulmonary function test), OVA-immunized mice; type: in vivo
Description: as §3
Group A mice were challenged by PBS only and then treated by PBS, too. Group B mice were immunized by ovalbumin and then treated by PBS only. Group C mice were immunized by ovalbumin and then treated by arsenic trioxide in a dosage of 2.5 mg per kg for mice. Group D mice were challenged by ovalbumin as group B and C and then treated by arsenic trioxide in a dosage of 5 mg/kg.
The mice were challenged with methacholine (Mch.) in an increasing concentration and the airway constriction of the mice was measured by using pulmonary function test, whereafter the data of Table 3.5 was obtained. […] The result is also consistent with the results of eotaxin and eosinophil in BALF.

dsDNA = assay: Serum IgG anti-dsDNA ELISA in SLE model mice; type: in vivo, NZB/NZW mice
Description: as §1, §2
Standard ELISA assay to measure the serum levels of anti-DNA antibodies was performed as follows. The plates were coated 10 μg/mL mBSA 4° C. overnight before coating dsDNA and ssDNA diluted with PBS to concentration of 7.5 μg/mL. ssDNA was prepared by boiling for 20 min then placed on ice immediately for 20 min. After overnight incubation at 4° C., the plates were washed and blocked with gelatin-PBS solution. The serum was diluted and then added to the appropriate wells, which were then incubated at 37° C. for 45 min. Horseradish peroxidase-comjugated anti-mouse γ-chain-specific antibodies were added. After incubation at 37° C. for 50 min, then room temperature for 10 min, 2,2′-azino-bisC3-ethylbenzthiazoline-6-sulphonic acid (ABTS) solution was used as substrate and the absorbance was measured at 405 nm. The level of anti-DNA IgG is presented as ELISA units (EU/ml) compared with mAb 10F10. The OD value generated by 74 ng/ml of 10F10 Ab was defined as 1 EU/ml for anti-DNA IgG. The level of anti-nucleosome IgG was calculated as EU by comparison with 10F10 Ab. The absorbance value generated by 231 ng/ml of 10F10 Ab was defined as 1 EU/ml of anti-nucleosome IgG.

Fibroblasts = assay: DAPI staining of apoptotic bodies in fibroblasts; type: cell-based, human; settings: 24 hours
Description: Fibroblasts were treated with different concentrations of ATO for 24 hours, cells were fixed and the apoptotic bodies were detected by DAPI staining.

## arsenic trioxide
NZB/NZW mice [1]; 2.5 mg/kg, 0 weeks
  survival rate (%): 100%
NZB/NZW mice [1]; 2.5 mg/kg, 22 weeks
  survival rate (%): 100%
NZB/NZW mice [1]; 2.5 mg/kg, 31 weeks
  survival rate (%): 100%
NZB/NZW mice [1]; 2.5 mg/kg, 38 weeks
  survival rate (%): 83.3%
NZB/NZW mice [1]; 2.5 mg/kg, 39 weeks
  survival rate (%): 66.7%
NZB/NZW mice [1]; 2.5 mg/kg, 40 weeks
  survival rate (%): 66.7%
NZB/NZW mice [1]; 2.5 mg/kg, 41 weeks
  survival rate (%): 66.7%
NZB/NZW mice [1]; 2.5 mg/kg, 42 weeks
  survival rate (%): 50%
NZB/NZW mice [1]; 5 mg/kg, 0 weeks
  survival rate (%): 100%
NZB/NZW mice [1]; 5 mg/kg, 22 weeks
  survival rate (%): 100%
NZB/NZW mice [1]; 5 mg/kg, 31 weeks
  survival rate (%): 66.7%
NZB/NZW mice [1]; 5 mg/kg, 38 weeks
  survival rate (%): 66.7%
NZB/NZW mice [1]; 5 mg/kg, 39 weeks
  survival rate (%): 66.7%
NZB/NZW mice [1]; 5 mg/kg, 40 weeks
  survival rate (%): 66.7%
NZB/NZW mice [1]; 5 mg/kg, 41 weeks
  survival rate (%): 66.7%
NZB/NZW mice [1]; 5 mg/kg, 42 weeks
  survival rate (%): 66.7%
NZB/NZW mice [1]; after 43 weeks
  treated mice still alive: 50%
NZB/NZW mice [2]; 2.5 mg/kg ATO and 5 mg/kg ATO
  onset of severe proteinuria in comparison with untreated animals: marked delay in the onset of severe proteinuria
NZB/NZW mice [2]; 2.5 mg/kg, 37 weeks
  Mice with severe glomerulonephritis (%): 16.67%
NZB/NZW mice [2]; 2.5 mg/kg, 40 weeks
  Mice with severe glomerulonephritis (%): 40%
NZB/NZW mice [2]; 5 mg/kg, 37 weeks
  Mice with severe glomerulonephritis (%): 25%
NZB/NZW mice [2]; 5 mg/kg, 40 weeks
  Mice with severe glomerulonephritis (%): 25%
OVA-specific IgE; Group C: OVA, ATO 2.5 mg/kg i.p. for 7 days
  OVA-specific IgE (SI.) in serum, Mean: 2.20 SI.
OVA-specific IgE; Group D: OVA, ATO 5 mg/kg i.p. for 7 days
  OVA-specific IgE (SI.) in serum, Mean: 1.96 SI.
[3]
  effect on cell cycle of fibroblasts: cell cycle arrest especially in G2/M
BALB/c mice; BALB/c mice, especially 2.5 mg/kg
  effect on airway hyper-reactivity / responsiveness to methacholine: does decrease the airway responsiveness; also recorded: successfully blocked
BALB/c mice; Group C: ATO 2.5 mg/kg, Mch 6.25 mg/ml, mean ± SD
  airway constriction by pulmonary function test (PenH): 3.62 ± 0.47
BALB/c mice; Group C: ATO 2.5 mg/kg, Mch 12.5 mg/ml, mean ± SD
  airway constriction by pulmonary function test (PenH): 7.83 ± 1.13
BALB/c mice; Group C: ATO 2.5 mg/kg, Mch 25 mg/ml, mean ± SD, p<0.05 vs Group B
  airway constriction by pulmonary function test (PenH): 10.15 ± 0.84
BALB/c mice; Group C: ATO 2.5 mg/kg, Mch 50 mg/ml, mean, p<0.05 vs Group B
  airway constriction by pulmonary function test (PenH): 9.83
BALB/c mice; Group D: ATO 5 mg/kg, Mch 6.25 mg/ml, mean ± SD
  airway constriction by pulmonary function test (PenH): 2.55 ± 0.35
BALB/c mice; Group D: ATO 5 mg/kg, Mch 12.5 mg/ml, mean ± SD
  airway constriction by pulmonary function test (PenH): 8.82 ± 0.88
BALB/c mice; Group D: ATO 5 mg/kg, Mch 25 mg/ml, mean ± SD
  airway constriction by pulmonary function test (PenH): 11.57 ± 1.52
BALB/c mice; Group D: ATO 5 mg/kg, Mch 50 mg/ml, mean
  airway constriction by pulmonary function test (PenH): 12.51
dsDNA; 2.5 mg/kg i.p. 3 times per week, before treatment
  IgG Anti-dsDNA titer: 0.262 ELISA Unit
dsDNA; 2.5 mg/kg, 4 weeks after treatment
  IgG Anti-dsDNA titer: 0.572 ELISA Unit
dsDNA; 2.5 mg/kg, 8 weeks after treatment
  IgG Anti-dsDNA titer: 0.464 ELISA Unit
dsDNA; 2.5 mg/kg, 12 weeks after treatment
  IgG Anti-dsDNA titer: 0.442 ELISA Unit
dsDNA; 5 mg/kg i.p. 3 times per week, before treatment
  IgG Anti-dsDNA titer: 0.362 ELISA Unit
dsDNA; 5 mg/kg, 4 weeks after treatment
  IgG Anti-dsDNA titer: 0.285 ELISA Unit
dsDNA; 5 mg/kg, 8 weeks after treatment
  IgG Anti-dsDNA titer: 0.357 ELISA Unit
dsDNA; 5 mg/kg, 12 weeks after treatment
  IgG Anti-dsDNA titer: 0.702 ELISA Unit
dsDNA; NZB/NZW mice, 2.5 or 5 mg/kg
  anti-DNA antibody levels in sera compared to PBS (Tables 4.1 and 4.2, ssDNA and dsDNA): significantly lower anti-DNA antibody levels
Fibroblasts; 1 μM
  apoptotic bodies by DAPI staining: no obvious apoptosis
Fibroblasts; 2.5 μM
  apoptotic bodies by DAPI staining: no obvious apoptosis
Fibroblasts; 5 μM
  apoptotic bodies by DAPI staining: obvious apoptotic bodies present
Fibroblasts; 10 μM
  apoptotic bodies by DAPI staining: both apoptosis and necrosis
